Source: patent publication US11505558B1, “Antiviral heterocyclic compounds” (Enanta Pharmaceuticals, Inc., priority 2019, dated 2022)
pEC50: −log10 of the molar value.

System: genotype A, "Long" strain RSV
Assay: RSV-A assay (CPE, ATPlite readout in Hep-2 cells)
Format: cell-based
Settings: human respiratory syncytial virus, HEp-2, Hep-2 cells, genotype A "Long" strain RSV, MOI 0.1; read-out: Human RSV-A (“Long” strain) EC50
Text: Hep-2 cells, (originally derived from tumors grown in irradiated-cortisonised weanling rats that had been injected with epidermoid carcinoma tissue from a person's larynx, but later found to be indistinguishable from HeLa cells by PCR DNA analysis), were used for the culturing of genotype A, “Long” strain RSV. Flasks were inoculated with RSV and viral stocks were collected once cytopathic effect (CPE) was greater than […]. Viral stocks in […] sucrose media were snap frozen using liquid nitrogen to increase viral stability. Viral stock titers were quantified by tissue culture infectious dose 50% (TCID50) using 8,000 cells per well and 3-fold viral dilutions across a 96-well plate, cultured for 4 days. Viral stock titers were also quantified by a plaque forming unit assay, as described elsewhere.
Following extensive parameter testing, the final assay is run as follows: Hep-2 cells are seeded into the inner 60 wells of a 96-well plate at 8,000 cells per well in a volume of 50 μL using Growth Media (DMEM without phenol red, 1% L-Glut, 1% Penn/Strep, 1% nonessential amino acids, 10% heat-inactivated FBS). 2-fold serial dilutions of control and test compounds are added to the wells in duplicate in a total volume of 25 μL. Viral stock is then added to the wells at a multiplicity of infection (MOI) of 0.1 in a volume of 25 μL, bringing the total volume of each well to 100 μL. The MOI is calculated using the PFU/mL, or TCID50 if unavailable. Each 96-well plate has a control column of 6 wells with cells and virus but no compound (negative control, max CPE), a column with cells but no compound or virus (positive control, minimum CPE), and a column with no cells or virus or compound (background plate/reagent control). The control wells with cells but no virus are given an additional 25 μL of growth media containing an equal quantity of sucrose as those wells receiving the viral stock in order to keep consistent in media and volume conditions. The outer wells of the plate are filled with 125 μL of moat media (DMEM, 1% Penn/Strep) to act as a thermal and evaporative moat around the test wells. Following a 5-day incubation period, the plates are read using ATPlite (50 uL added per well), which quantifies the amount of ATP (a measure of cell health) present in each well. Assay plates are read using the Envision luminometer. […] EC50 ranges are as follows: A<0.2 μM; B>0.2 μM.

| pEC50 | SMILES |
| --- | --- |
| > 6.70 | Cc1cccc(-c2cc(C(=O)NC[C@](O)(c3cc4c(c(-c5ccc(F)cc5)n3)OC[C@]4(C)C(N)=O)C(F)(F)F)ccc2OC2CC2)n1 [Example 109] |
| < 6.70 | C[C@]1(C(N)=O)COc2c1cc([C@@](O)(CNC(=O)c1ccc(OC3CC3)c(-c3cnc(C(F)(F)F)nc3)c1)C(F)(F)F)nc2-c1ccc(F)cc1 [Example 111] |
| > 6.70 | C[C@]1(C(N)=O)COc2c1cc([C@@](O)(CNC(=O)c1ccc(OC3CC3)c(-c3cnc(C4CC4)nc3)c1)C(F)(F)F)nc2-c1ccc(F)cc1 [Example 112] |
| < 6.70 | C[C@]1(C(N)=O)COc2c1cc([C@@](O)(CNC(=O)c1ccc(OC3CC3)c(-c3ccncc3C(F)(F)F)c1)C(F)(F)F)nc2-c1ccc(F)cc1 [Example 113] |
| > 6.70 | Cc1cnc(-c2cc(C(=O)NC[C@](O)(c3cc4c(c(-c5ccc(F)cc5)n3)OC[C@]4(C)C(N)=O)C(F)(F)F)ccc2OC2CC2)cn1 [Example 115] |
| < 6.70 | Cc1cnccc1-c1cc(C(=O)NC[C@](O)(c2cc3c(c(-c4ccc(F)cc4)n2)OC[C@]3(C)C(N)=O)C(F)(F)F)ccc1OC1CC1 [Example 117] |
| < 6.70 | C[C@]1(C(N)=O)COc2c1cc([C@@](O)(CNC(=O)c1ccc(OC3CC3)c(-c3ccc(C(F)(F)F)nc3)c1)C(F)(F)F)nc2-c1ccc(F)cc1 [Example 118] |
| < 6.70 | C[C@]1(C(N)=O)COc2c1cc([C@@](O)(CNC(=O)c1ccc(OC3CC3)c(-c3ccncc3)c1)C(F)(F)F)nc2-c1ccc(F)cc1 [Example 119] |
| > 6.70 | Cc1cc(-c2cc(C(=O)NC[C@](O)(c3cc4c(c(-c5ccc(F)cc5)n3)OC[C@]4(C)C(N)=O)C(F)(F)F)ccc2OC2CC2)ccn1 [Example 120] |
| < 6.70 | Cc1noc(C)c1-c1cc(C(=O)NC[C@](O)(c2cc3c(c(-c4ccc(F)cc4)n2)OC[C@]3(C)C(N)=O)C(F)(F)F)ccc1OC1CC1 [Example 121] |
| > 6.70 | C[C@]1(C(N)=O)COc2c1cc([C@@](O)(CNC(=O)c1ccc(OC3CC3)c(C3=CCOCC3)c1)C(F)(F)F)nc2-c1ccc(F)cc1 [Example 122] |
| > 6.70 | C[C@]1(C(N)=O)COc2c1cc([C@@](O)(CNC(=O)c1ccc(OC3CC3)c(-c3nccs3)c1)C(F)(F)F)nc2-c1ccc(F)cc1 [Example 125] |
| > 6.70 | C[C@]1(C(N)=O)COc2c1cc([C@@](O)(CNC(=O)c1ccc(OC3CC3)c(-c3cscn3)c1)C(F)(F)F)nc2-c1ccc(F)cc1 [Example 128] |
| > 6.70 | C[C@]1(C(N)=O)COc2c1cc([C@@](O)(CNC(=O)c1ccc(OC3CC3)c(-c3cncs3)c1)C(F)(F)F)nc2-c1ccc(F)cc1 [Example 129] |
| < 6.70 | COc1ncc(-c2cc(C(=O)NC[C@](O)(c3cc4c(c(-c5ccc(F)cc5)n3)OC[C@]4(C)C(N)=O)C(F)(F)F)ccc2OC2CC2)s1 [Example 130] |
| > 6.70 | CCc1ncc(-c2cc(C(=O)NC[C@](O)(c3cc4c(c(-c5ccc(F)cc5)n3)OC[C@]4(C)C(N)=O)C(F)(F)F)ccc2OC2CC2)cn1 [Example 131] |
| < 6.70 | C[C@]1(C(N)=O)COc2c1cc([C@@](O)(CNC(=O)c1ccc(OC3CC3)c(-c3ccc(=O)[nH]c3)c1)C(F)(F)F)nc2-c1ccc(F)cc1 [Example 132] |
| > 6.70 | C[C@]1(C(N)=O)COc2c1cc([C@@](O)(CNC(=O)c1ccc(OC3CC3)c(N3CCOCC3)c1)C(F)(F)F)nc2-c1ccc(F)cc1 [Example 133] |
| < 6.70 | C[C@]1(C(N)=O)COc2c1cc([C@@](O)(CNC(=O)c1ccc(OC3CC3)c(N3CCCCC3)c1)C(F)(F)F)nc2-c1ccc(F)cc1 [Example 134] |
| > 6.70 | C[C@]1(C(N)=O)COc2c1cc([C@@](O)(CNC(=O)c1ccc(OC3CC3)c(-c3ccnnc3)c1)C(F)(F)F)nc2-c1ccc(F)cc1 [Example 135] |
| > 6.70 | C[C@]1(C(N)=O)COc2c1cc([C@@](O)(CNC(=O)c1ccc(OC3CC3)c(-c3cccnc3C(F)(F)F)c1)C(F)(F)F)nc2-c1ccc(F)cc1 [Example 138] |
| < 6.70 | C[C@]1(C(N)=O)COc2c1cc([C@@](O)(CNC(=O)c1ccc(OC3CC3)c(-c3cnccc3C(F)(F)F)c1)C(F)(F)F)nc2-c1ccc(F)cc1 [Example 139] |
| > 6.70 | C[C@]1(C(N)=O)COc2c1cc([C@@](O)(CNC(=O)c1ccc(-c3cccnc3)c(OC3CC3)c1)C(F)(F)F)nc2-c1ccc(F)cc1 [Example 141] |

| pEC50 | SMILES |
| --- | --- |
| < 6.70 | Cc1cncc(-c2ccc(C(=O)NC[C@](O)(c3cc4c(c(-c5ccc(F)cc5)n3)OC[C@]4(C)C(N)=O)C(F)(F)F)cc2OC2CC2)c1 [Example 142] |
| < 6.70 | C[C@]1(C(N)=O)COc2c1cc([C@@](O)(CNC(=O)c1ccc(-c3cncc(C(F)(F)F)c3)c(OC3CC3)c1)C(F)(F)F)nc2-c1ccc(F)cc1 [Example 143] |
| < 6.70 | Cc1ncccc1-c1ccc(C(=O)NC[C@](O)(c2cc3c(c(-c4ccc(F)cc4)n2)OC[C@]3(C)C(N)=O)C(F)(F)F)cc1OC1CC1 [Example 144] |
| < 6.70 | C[C@]1(C(N)=O)COc2c1cc([C@@](O)(CNC(=O)c1ccc(-c3cccnc3C(F)(F)F)c(OC3CC3)c1)C(F)(F)F)nc2-c1ccc(F)cc1 [Example 145] |
| < 6.70 | Cc1ccc(-c2ccc(C(=O)NC[C@](O)(c3cc4c(c(-c5ccc(F)cc5)n3)OC[C@]4(C)C(N)=O)C(F)(F)F)cc2OC2CC2)cn1 [Example 146] |
| < 6.70 | C[C@]1(C(N)=O)COc2c1cc([C@@](O)(CNC(=O)c1ccc(-c3ccc(C(F)(F)F)nc3)c(OC3CC3)c1)C(F)(F)F)nc2-c1ccc(F)cc1 [Example 147] |
| < 6.70 | Cc1ccncc1-c1ccc(C(=O)NC[C@](O)(c2cc3c(c(-c4ccc(F)cc4)n2)OC[C@]3(C)C(N)=O)C(F)(F)F)cc1OC1CC1 [Example 148] |
| < 6.70 | C[C@]1(C(N)=O)COc2c1cc([C@@](O)(CNC(=O)c1ccc(-c3cnccc3C(F)(F)F)c(OC3CC3)c1)C(F)(F)F)nc2-c1ccc(F)cc1 [Example 149] |
| > 6.70 | C[C@]1(C(N)=O)COc2c1cc([C@@](O)(CNC(=O)c1ccc(-c3ccncc3)c(OC3CC3)c1)C(F)(F)F)nc2-c1ccc(F)cc1 [Example 150] |
| > 6.70 | Cc1cc(-c2ccc(C(=O)NC[C@](O)(c3cc4c(c(-c5ccc(F)cc5)n3)OC[C@]4(C)C(N)=O)C(F)(F)F)cc2OC2CC2)ccn1 [Example 151] |
| < 6.70 | C[C@]1(C(N)=O)COc2c1cc([C@@](O)(CNC(=O)c1ccc(-c3ccnc(C(F)(F)F)c3)c(OC3CC3)c1)C(F)(F)F)nc2-c1ccc(F)cc1 [Example 152] |
| < 6.70 | Cc1cnccc1-c1ccc(C(=O)NC[C@](O)(c2cc3c(c(-c4ccc(F)cc4)n2)OC[C@]3(C)C(N)=O)C(F)(F)F)cc1OC1CC1 [Example 153] |
| < 6.70 | C[C@]1(C(N)=O)COc2c1cc([C@@](O)(CNC(=O)c1ccc(-c3ccncc3C(F)(F)F)c(OC3CC3)c1)C(F)(F)F)nc2-c1ccc(F)cc1 [Example 154] |
| < 6.70 | C[C@]1(C(N)=O)COc2c1cc([C@@](O)(CNC(=O)c1ccc(-c3ccccn3)c(OC3CC3)c1)C(F)(F)F)nc2-c1ccc(F)cc1 [Example 155] |
| < 6.70 | C[C@]1(C(N)=O)COc2c1cc([C@@](O)(CNC(=O)c1ccc(-c3ccc(C(F)(F)F)cn3)c(OC3CC3)c1)C(F)(F)F)nc2-c1ccc(F)cc1 [Example 156] |
| < 6.70 | Cc1ccc(-c2ccc(C(=O)NC[C@](O)(c3cc4c(c(-c5ccc(F)cc5)n3)OC[C@]4(C)C(N)=O)C(F)(F)F)cc2OC2CC2)nc1 [Example 157] |
| < 6.70 | Cc1cccc(-c2ccc(C(=O)NC[C@](O)(c3cc4c(c(-c5ccc(F)cc5)n3)OC[C@]4(C)C(N)=O)C(F)(F)F)cc2OC2CC2)n1 [Example 158] |
| > 6.70 | C[C@]1(C(N)=O)COc2c1cc([C@@](O)(CNC(=O)c1ccc(N3CCC3)c(OC3CC3)c1)C(F)(F)F)nc2-c1ccc(F)cc1 [Example 159] |
| < 6.70 | C[C@]1(C(N)=O)COc2c1cc([C@@](O)(CNC(=O)c1ccc(N3CCOCC3)c(OC3CC3)c1)C(F)(F)F)nc2-c1ccc(F)cc1 [Example 160] |
| < 6.70 | C[C@]1(C(N)=O)COc2c1cc([C@@](O)(CNC(=O)c1ccc(N3CCCCC3)c(OC3CC3)c1)C(F)(F)F)nc2-c1ccc(F)cc1 [Example 161] |
| < 6.70 | C[C@]1(C(N)=O)COc2c1cc([C@@](O)(CNC(=O)c1ccc(-c3cccc(C(F)(F)F)n3)c(OC3CC3)c1)C(F)(F)F)nc2-c1ccc(F)cc1 [Example 162] |
| < 6.70 | C[C@]1(C(N)=O)COc2c1cc([C@@](O)(CNC(=O)c1ccc(-c3ncccn3)c(OC3CC3)c1)C(F)(F)F)nc2-c1ccc(F)cc1 [Example 163] |
| < 6.70 | Cc1ncc(-c2ccc(C(=O)NC[C@](O)(c3cc4c(c(-c5ccc(F)cc5)n3)OC[C@]4(C)C(N)=O)C(F)(F)F)cc2OC2CC2)cn1 [Example 164] |
